This passage reports IC50 results from US9394268B2, “(E)-1-(5-methoxy-2,2-dimethyl-2H-chromen-8-yl)-3-(4-methoxyphenyl)prop-2-en-1-one and analogs thereof, as well as preparation method and use thereof” (Sichuan University, priority 2012, dated 2016).

Assay type in all cases: cell-based
For one experiment, the system named is LO2. The experiment is described as follows: Cell proliferative assay (MTT), LO2. The conditions noted are these: Homo sapiens, L02, 72 h incubation, read-out: IC50s LO2. As to the method:
(§1) The synthesized compounds were evaluated for their cytotoxin activity against suspended tumor cells. These cells were seeded on 96-well plates and incubated for 24 h. Selected compounds were added at various doses and incubated for 72 h, MTT was then added, and the absorbance was measured at a wavelength of 590 nm. IC50 values are expressed as the mean±SEM from the dose-response curves of at least three independent experiments.

The test system of the next experiment is SMMC-7221. Put plainly: Cell proliferative assay (MTT), SMMC-7221. The conditions noted are these: 72 h incubation, read-out: IC50s SMMC-7221. As to the method: as §1
Another experiment has as its system A375. Put plainly: Cell proliferative assay (MTT), A375. Particulars: Homo sapiens, A-375, 72 h incubation, read-out: IC50s A375. As for the experimental part:
as §1

Another experiment concerns HepG2. The experiment is described as follows: Cell proliferative assay (MTT), HepG2. Particulars: Homo sapiens, 72 h incubation, read-out: IC50s HepG2. As for the experimental part:
as §1

The subject of the next experiment is K562. Put plainly: Cell proliferative assay (MTT), K562. Particulars: Homo sapiens, 72 h incubation, read-out: IC50s K562. As to the method: as §1
A further experiment deals with A549. The experiment is described as follows: Cell proliferative assay (MTT), A549. The conditions noted are these: Homo sapiens, 72 h incubation, read-out: IC50s A549. As to the method:
as §1

For the compound `COc1ccc(/C=C/C(=O)c2ccc(OC)c3c2OC(C)(C)C=C3)cc1OS(=O)(=O)Cc1ccccc1` [SKLBC-70, (E)-2-methoxy-5-(3-(5-methoxy-2,2-dimethyl-2H-chromen-8-yl)-3-oxoprop-1-en-1-yl)phenyl phenylmethanesulfonate], the IC50 in the experiment with LO2, in the experiment with SMMC-7221, in the experiment on A375, in the experiment on HepG2, with K562 and with A549 was above 10 µM throughout.
On to `COc1ccc(/C=C/C(=O)c2ccc(OC)c3c2OC(C)(C)C=C3)cc1OCC=C(C)C` [SKLBC-71, (E)-1-(5-methoxy-2,2-dimethyl-2H-chromen-8-yl)-3-(4-methoxy-3-((3-methylbut-2-en-1-yl)oxy)phenyl)prop-2-en-1-one], for which the IC50 in the experiment with LO2 was above 10 µM; in the experiment with SMMC-7221, 0.87 µM; in the experiment on A375 it was 2.2 µM; with HepG2, 0.58 µM; with K562 it was 0.62 µM; with A549, 1.2 µM.
Regarding `C=CCOc1cc(/C=C/C(=O)c2ccc(OC)c3c2OC(C)(C)C=C3)ccc1OC` [SKLBC-72, (E)-3-(3-(allyloxy)-4-methoxyphenyl)-1-(5-methoxy-2,2-dimethyl-2H-chromen-8-yl)prop-2-en-1-one], the IC50 in the experiment with LO2 was above 20 µM; with SMMC-7221, above 10 µM; with A375, above 10 µM; with HepG2, above 10 µM; in the experiment on K562, above 10 µM; with A549 it was above 10 µM.
With `C#CCOc1cc(/C=C/C(=O)c2ccc(OC)c3c2OC(C)(C)C=C3)ccc1OC` [SKLBC-73, (E)-1-(5-methoxy-2,2-dimethyl-2H-chromen-8-yl)-3-(4-methoxy-3-(prop-2-yn-1-yloxy)phenyl)prop-2-en-1-one], the IC50 in the experiment with LO2 was above 20 µM; in the experiment with SMMC-7221, above 10 µM; with A375 it was above 10 µM; with HepG2, above 10 µM; in the experiment on K562 it was above 10 µM; in the experiment with A549, above 10 µM.
For `COc1ccc(/C=C/C(=O)c2ccc(OC)c3c2OC(C)(C)C=C3)cc1OC(=O)CCl` [SKLBC-74, (E)-2-methoxy-5-(3-(5-methoxy-2,2-dimethyl-2H-chromen-8-yl)-3-oxoprop-1-en-1-yl)phenyl 2-chloroacetate], the IC50 in the experiment on LO2 is above 10 µM; in the experiment with SMMC-7221 it was 2.73 µM; in the experiment with A375 it was 0.245 µM; with HepG2, 0.09 µM; in the experiment with K562, 0.202 µM; in the experiment with A549 it was 0.226 µM.
Consider `C=CC(=O)Oc1cc(/C=C/C(=O)c2ccc(OC)c3c2OC(C)(C)C=C3)ccc1OC` [SKLBC-75, (E)-2-methoxy-5-(3-(5-methoxy-2,2-dimethyl-2H-chromen-8-yl)-3-oxoprop-1-en-1-yl)phenyl acrylate], for which the IC50 is above 10 µM with LO2; 1.16 µM with SMMC-7221; 0.19 µM in the experiment with A375; 0.06 µM in the experiment on HepG2; 0.295 µM in the experiment with K562; 0.49 µM with A549.
In the case of `COc1ccc(/C=C/C(=O)c2ccc(OC)c3c2OC(C)(C)C=C3)cc1OS(C)(=O)=O` [SKLBC-77, (E)-2-methoxy-5-(3-(5-methoxy-2,2-dimethyl-2H-chromen-8-yl)-3-oxoprop-1-en-1-yl)phenyl methanesulfonate], the IC50 was above 10 µM in the experiment with LO2; above 10 µM with SMMC-7221; above 10 µM with A375; 9 µM in the experiment with HepG2; 9.24 µM in the experiment with K562; above 10 µM with A549.
Regarding `COc1ccc(/C=C/C(=O)c2ccc(OC)c3c2OC(C)(C)C=C3)cc1OC(=O)C12CC3CC(CC(C3)C1)C2` [SKLBC-78], the IC50 in the experiment with LO2 was 5.58 µM; in the experiment with SMMC-7221 it was above 10 µM; with A375, 1.06 µM; in the experiment on HepG2, 2.52 µM; in the experiment on K562 it was 2.83 µM; with A549, 6.4 µM.
Take `CCCCC(=O)Oc1cc(/C=C/C(=O)c2ccc(OC)c3c2OC(C)(C)C=C3)ccc1OC` [SKLBC-79, (E)-2-methoxy-5-(3-(5-methoxy-2,2-dimethyl-2H-chromen-8-yl)-3-oxoprop-1-en-1-yl)phenyl pentanoate]: the IC50 in the experiment with LO2 was above 10 µM; in the experiment with SMMC-7221, 1.03 µM; in the experiment with A375 it was 0.378 µM; with HepG2 it was 0.09 µM; with K562 it was 0.24 µM; in the experiment on A549 it was 1.18 µM.
Take `COc1ccc(/C=C/C(=O)c2ccc(OC)c3c2OC(C)(C)C=C3)cc1OC(=O)C1CC1` [SKLBC-80, (E)-2-methoxy-5-(3-(5-methoxy-2,2-dimethyl-2H-chromen-8-yl)-3-oxoprop-1-en-1-yl)phenyl cyclopropanecarboxylate]: the IC50 is above 10 µM with LO2; 1.44 µM in the experiment on SMMC-7221; 0.383 µM in the experiment on A375; 0.118 µM in the experiment with HepG2; 0.41 µM in the experiment on K562; 1.32 µM in the experiment on A549.
As for `COc1ccc(/C=C/C(=O)c2ccc(OC)c3c2OC(C)(C)C=C3)cc1OC(=O)C(C)C` [SKLBC-81, (E)-2-methoxy-5-(3-(5-methoxy-2,2-dimethyl-2H-chromen-8-yl)-3-oxoprop-1-en-1-yl)phenyl isobutyrate], the IC50 in the experiment with LO2 is above 10 µM; in the experiment with SMMC-7221 it was 2.63 µM; with A375 it was 0.505 µM; with HepG2, 0.15 µM; in the experiment on K562, 0.57 µM; with A549, 0.98 µM.
With `COc1ccc(/C=C/C(=O)c2ccc(OC)c3c2OC(C)(C)C=C3)cc1[N+](=O)[O-]` [SKLBC-82, (E)-1-(5-methoxy-2,2-dimethyl-2H-chromen-8-yl)-3-(4-methoxy-3-nitrophenyl)prop-2-en-1-one], the IC50 in the experiment with LO2 is above 20 µM; with SMMC-7221, above 10 µM; in the experiment on A375, above 10 µM; with HepG2, above 10 µM; with K562, above 10 µM; with A549, above 10 µM.
As for `COc1ccc(/C=C/C(=O)c2ccc(OC)c3c2OC(C)(C)C=C3)cc1NO` [SKLBC-84, (E)-3-(3-(hydroxyamino)-4-methoxyphenyl)-1-(5-methoxy-2,2-dimethyl-2H-chromen-8-yl)prop-2-en-1-one], the IC50 is above 20 µM in the experiment on LO2; above 10 µM in the experiment with SMMC-7221; above 10 µM with A375; above 10 µM with HepG2; above 10 µM in the experiment with K562; above 10 µM in the experiment with A549.
For the compound `CNc1cc(/C=C/C(=O)c2ccc(OC)c3c2OC(C)(C)C=C3)ccc1OC` [SKLBC-85, (E)-1-(5-methoxy-2,2-dimethyl-2H-chromen-8-yl)-3-(4-methoxy-3-(methylamino)phenyl)prop-2-en-1-one], the IC50 in the experiment with LO2 is above 20 µM; with SMMC-7221, above 10 µM; in the experiment with A375 it was above 10 µM; in the experiment with HepG2, above 10 µM; in the experiment with K562 it was above 10 µM; in the experiment with A549, above 10 µM.
In the case of `CCN(CC)c1cc(/C=C/C(=O)c2ccc(OC)c3c2OC(C)(C)C=C3)ccc1OC` [SKLBC-86, (E)-3-(3-(diethylamino)-4-methoxyphenyl)-1-(5-methoxy-2,2-dimethyl-2H-chromen-8-yl)prop-2-en-1-one], the IC50 with LO2 was above 20 µM; with SMMC-7221, above 10 µM; in the experiment with A375, above 10 µM; with HepG2 it was above 10 µM; in the experiment with K562 it was above 10 µM; in the experiment on A549 it was above 10 µM.
On to `C#CCNc1cc(/C=C/C(=O)c2ccc(OC)c3c2OC(C)(C)C=C3)ccc1OC` [SKLBC-87, (E)-1-(5-methoxy-2,2-dimethyl-2H-chromen-8-yl)-3-(4-methoxy-3-(prop-2-yn-1-ylamino)phenyl)prop-2-en-1-one], for which the IC50 with LO2 is above 20 µM; with SMMC-7221, above 10 µM; in the experiment on A375, above 10 µM; with HepG2, above 10 µM; in the experiment on K562, above 10 µM; in the experiment with A549, above 10 µM.
As for `COc1ccc(/C=C/C(=O)c2ccc(OC)c3c2OC(C)(C)C=C3)cc1N(CC=C(C)C)CC=C(C)C` [SKLBC-88, (E)-3-(3-(bis(3-methylbut-2-en-1-yl)amino)-4-methoxyphenyl)-1-(5-methoxy-2,2-dimethyl-2H-chromen-8-yl)prop-2-en-1-one], the IC50 in the experiment with LO2 is 9.7 µM; in the experiment with SMMC-7221, above 10 µM; with A375, above 10 µM; in the experiment on HepG2, above 10 µM; with K562, 7.5 µM; in the experiment with A549, above 10 µM.
As to `COc1ccc(/C=C/C(=O)c2ccc(OC)c3c2OC(C)(C)C=C3)cc1NCCN1CCOCC1` [SKLBC-89, (E)-1-(5-methoxy-2,2-dimethyl-2H-chromen-8-yl)-3-(4-methoxy-3-((2-morpholinoethyl)amino)phenyl)prop-2-en-1-one], the IC50 was determined as 2.65 µM in the experiment on LO2; 0.245 µM with SMMC-7221; 0.215 µM in the experiment with A375; 0.05 µM in the experiment with HepG2; 0.093 µM with K562; 0.215 µM in the experiment with A549.
With `COc1ccc(/C=C/C(=O)c2ccc(OC)c3c2OC(C)(C)C=C3)cc1N(Cc1ccccc1)Cc1ccccc1` [SKLBC-91, (E)-3-(3-(dibenzylamino)-4-methoxyphenyl)-1-(5-methoxy-2,2-dimethyl-2H-chromen-8-yl)prop-2-en-1-one], the IC50 with LO2 is above 10 µM; in the experiment on SMMC-7221, above 10 µM; with A375, above 10 µM; in the experiment with HepG2, above 10 µM; in the experiment on K562, 0.57 µM; in the experiment on A549, above 10 µM.
